# Experimental data taken from patent publication US20090042820A1, “Tubulin Binding Anti Cancer Agents And Prodrugs Thereof” (Threshold Pharmaceuticals, Inc., priority 2004, published 2009).
# Where two headings read alike, the source gives them in different places.
# What was measured:
# [1] = tested on: H460 cells; assay: Cell cycle analysis; type: cell-based, human; details: 24 h
# Description: H460 cells (2×10^5 cells/ml/well) were seeded in a 24 well plate. The culture media were removed after 24 h, the cells were trypsinized and centrifuged. […] The cells were centrifuged and the supernatant was discarded. The cell cycle staining reagent (Guava Technologies, Hayward, Calif., USA, 200 μl) was added to each well. The cells were shielded from light and incubated at room temperature for 30 min.
# [2] = tested on: HT29; assay: Alamar Blue antiproliferation assay, HT29; type: cell-based; details: Homo sapiens, HT-29, 72 h; HT29, 3 Day
# [3] = tested on: H460 xenograft; assay: H460 xenograft mouse model; type: in vivo; details: for Treated/Control (T/C) ratio, tumor volume: compound 30 5 mg/kg daily for five days from day 8
# Description: (§1) Female CB17/SCID mice (purchased from Taconic, Oxnard, Calif.), 7-8 weeks of age, were allowed to acclimatize for at least three days, and handled under pathogen-free conditions. Human non-small cell lung cancer cell line […] was obtained from the American Type Culture Collection. The cell lines were cultured in RPMI 1640 media supplemented with 10% fetal bovine serum. Cells were maintained in a 37° C. incubator with 5% CO2. The H460 cells were harvested from culture and inoculated at 1×10^6 cells/animal in the […] subcutaneous space. […] Taxol was administered approximately 2-3 hours before that of compound 30.
# (§2) The body weight of each mouse was recorded twice per week (FIG. 1). […] One animal in the treatment group was found dead on day 18, and two were found dead on day 22 in the combination group.
# (§3) FIG. 2 graphically illustrates the mean tumor volume for each treatment group. Growth of each xenograft was monitored by externally measuring tumors in two dimensions using a digital caliper twice per week. Tumor volume (V) was determined by the following equation: V=(L×W^2)/2, where L is the length and W is the width of a xenograft. Tumor volumes were measured twice weekly. On day 11, the Treated/Control (T/C) ratio was 65% and 52% in the treatment and combination groups, respectively. At the final measurement (day 22), the T/C ratio for the treatment and combination groups respectively were 43% and 19%.
# [4] = H460 xenograft mouse model; type: in vivo; details: female, mouse, in vivo; daily dose for five days, CB17/SCID mice; read-out: maximum tolerated dose
# Description: as §1, §2, §3
# [5] = tested on: tubulin; assay: Tubulin polymerization inhibition (cell free tubulin fluorescence); type: biochemical; details: compared to untreated tubulin, read-out: IC50 (μM), concentration that reduced tubulin fluorescence by 50%
# Description: A sample of cell free tubulin polymerizes and the sample's fluorescence emission increases. Inhibition of tubulin polymerization by a tubulin binding compounds of the present invention was measured by the dose dependence of cell free tubulin fluorescence.
# [6] = Metabolic stability in mouse liver microsomes; type: in vitro ADME; details: 5 μM, 1 mg/mL protein, NADPH, 37° C.
# Description: An in vitro assessment of metabolic stability of compounds was performed using commercially available mouse liver microsomes (MLM) containing cytochrome P450 enzymes (Cedra Corp, Austin, Tex.). A solutions (5 μM) of a compound and microsomes (1 mg/mL protein) was prepared. P450 enzymatic reactions were initiated by adding an NADPH solution. Enzymatic reactions were carried out in a thermostated shaking water bath kept at 37° C. Fifty μl of the reaction mixture was withdrawn immediately and 30 minutes after the addition of the NADPH solution and the proteins were precipitated with acetonitrile. The clear supernatant was analyzed by reversed phase LC-MS/MS (Applied Biosystems API-3000 with Hypersil-BDS C18 column and gradient elution), with internal standard area ratio quantification for the amount the compound remaining as shown in table 4.
# [7] = Plasma stability; type: in vitro ADME; details: mouse plasma, 5 μM, 37° C.
# Description: For an assessment of plasma stability of compounds, commercially available mouse plasma (Bioreclamation, Hicksville, N.Y.) was added to a DMSO solution of a compound, to a concentration of 5 μM. The reaction mixture (50 μl) was withdrawn immediately and after 30 minutes at 37° C., proteins were precipitated with acetonitrile. The clear supernatant was analyzed by reversed phase LC-MS/MS and the amount the compound remaining quantified as shown in table 4.
# [8] = tested on: MES-SA; assay: Alamar Blue antiproliferation assay, MES-SA; type: cell-based; details: Homo sapiens, 72 h, 3 Day
# [9] = tested on: T47D; assay: Alamar Blue antiproliferation assay, T47D; type: cell-based; details: Homo sapiens, 72 h, 3 Day
# [10] = tested on: cancer cell; assay: Cancer cell antiproliferation assay (cell line not stated); type: cell-based; details: summary statement; read-out: GI50 or IC50 in a cancer cell antiproliferation assay
# Description: In one aspect, the present invention provides a compound of formula (I-VII) having a GI50, GI90, IC50, or IC50 of about 0.001 to about 1000 nM, about 0.01 to about 100 nm, about 0.1 to about 50 nM, and about 1 to about 10 nM in a cancer cell antiproliferation assay. In one embodiment, the present invention provides a compound of formula (I) having a GI50 or IC50 of about 0.01 to about 100 nm, about 0.1 to about 50 nm, and about 1 to about 10 nm in a cancer cell antiproliferation assay. In various embodiments, said antiproliferation assays employ cancer cell including but not limited to gastric, colon, breast, and non-small cell lung cancer. In various embodiments, the […] cancer cell used is MESSA or doxorubicin resistant MESSA/DX5 cell; the colon cancer cell is HT29 cell; the breast cancer cell is T47D cell; and the non-small cell lung cancer cell is H460 cell.
# (§4) To determine the effect of the compounds of the present invention on cell proliferation, the antiproliferative activity of these compounds was tested in a multi-well Alamar Blue based assay (at 2 h and 3 days). Cell growth in the presence and absence of the test compound as tabulated in Table 1 was compared, as measured by a fluorescence plate reader at excitation 550 nm and emission 590 nm (see Biosource International Inc., Tech Application Notes, Use of Alamar Blue in the measurement of Cell Viability and Toxicity, Determining IC50). H460 cells (ATCC HTB-177 ([…]), 4,000 cells/well/200 μl) and LNCap cells (ATCC CRL-1740, 6,000 cells/well/200 μl) were seeded in a 96 well plate in RPMI medium (Invitrogen Corporation, Carlsbad, Calif.). After 24 hours, these plates were divided into 3 groups—Control group, 2 h treatment group and 3 day treatment group.
# (§5) In the 2 h treatment group, after 2 h the cells were rinsed to remove the test compound and incubated for 3 days, followed by staining with AlamarBlue. The cells in the 3-day treatment group were incubated for 3 days, followed by staining with AlamarBlue. In the Control group, AlamarBlue was added to the plate at (i) day 0 and (ii) day 3 and measured to establish the control reading. In all the groups, the capacity of the cells to proliferate was measured 6 hours after addition of AlamarBlue by a fluorescence plate reader at excitation 550 nm and emission 590 nm.
# [11] = tested on: H460 cells; assay: Alamar Blue antiproliferation assay, H460 cell line; type: cell-based, human; details: Homo sapiens
# Description: as §4, §5
# [12] = tested on: MES-SA/DX5; assay: Alamar Blue antiproliferation assay, MES-SA/DX5; type: cell-based; details: Homo sapiens, 72 h; MES-SA/DX5, 3 Day
structure (smiles),measurement,setting,value
COc1cc(C(=O)c2n[nH]c3c(C#CCO)c(OC)ccc23)cc(OC)c1OC [Compound 30],% G2/M,"[1]; H460, 0.4 nM",31%
same,% Go/G1,"[1]; H460, 0.4 nM",46%
same,% S,"[1]; H460, 0.4 nM",14%
same,% G2/M,"[1]; H460, 1.2 nM",29%
same,% Go/G1,"[1]; H460, 1.2 nM",48%
same,% S,"[1]; H460, 1.2 nM",15%
same,% G2/M,"[1]; H460, 3.7 nM",31%
same,% Go/G1,"[1]; H460, 3.7 nM",46%
same,% S,"[1]; H460, 3.7 nM",14%
same,% G2/M,"[1]; H460, 11.1 nM",68%
same,% Go/G1,"[1]; H460, 11.1 nM",14%
same,% S,"[1]; H460, 11.1 nM",9%
same,% G2/M,"[1]; H460, 33.3 nM",80%
same,% Go/G1,"[1]; H460, 33.3 nM",7%
same,% S,"[1]; H460, 33.3 nM",7%
same,GI50,[2],1.9 nM
same,toxicity at doses greater than 5 mg/kg,"[3]; daily doses 20 and 50 mg/kg for five days, treatment and combination groups",toxic and caused lethality
same,"Treated/Control (T/C) ratio, tumor volume",[3]; day 11,65%
same,animals found dead,"[3]; day 18, compound 30 5 mg/kg daily, ten per group",One
same,"Treated/Control (T/C) ratio, tumor volume",[3]; day 22 (final measurement),43%
same,mean weight loss,"[3]; day 22 from start of treatment on day 8, compound 30 5 mg/kg daily for five days",8%
same,tumor volume as % of a control tumor volume,"[3]; human cancer cell xenograft tumor bearing mice, summary statement",5-70%
same,MTD at 5 days,[4],5 to 20 mg/kg
same,IC50,[5],3.9 µM
same,"Metabolic stability (MLM, % remaining at 30 min)",[6],101 ± 16%
same,Plasma stability (% remaining at 30 min),[7],104%
same,GI50,[8],0.3 nM
same,GI50,[9],2.5 nM
same,IC50,[10],1 to 50 nM
same,GI50,"[11]; NCI-H460, 2 h treatment, then 3 days incubation, read-out: GI50 (nM) 2 Hour",630 nM
same,GI50,"[11]; NCI-H460, 72 h, 3 day treatment, read-out: GI50 (nM) 3 Days",10 nM
same,GI50,[12],1.6 nM
